{"source": "ChEMBL document CHEMBL1201862", "about": "“PubChem BioAssay data set” (2004)", "assay_in_all_cases": "NCI-60 cell line screen, 48 h", "key": {"786-0": {"system": "786-0"}, "ACHN": {"system": "ACHN"}, "BT-549": {"system": "BT-549"}, "CAKI-1": {"system": "CAKI-1"}, "CCRF-CEM": {"system": "CCRF-CEM"}, "COLO 205": {"system": "COLO 205"}, "DU-145": {"system": "DU-145"}, "EKVX": {"system": "EKVX"}, "HCC 2998": {"system": "HCC 2998"}, "HCT-116": {"system": "HCT-116"}, "HCT-15": {"system": "HCT-15"}, "HL-60": {"system": "HL-60"}, "HOP-62": {"system": "HOP-62"}, "HOP-92": {"system": "HOP-92"}, "HT-29": {"system": "HT-29"}, "IGROV-1": {"system": "IGROV-1"}, "K562": {"system": "K562"}, "KM12": {"system": "KM12"}, "LOX IMVI": {"system": "LOX IMVI"}, "M14": {"system": "M14"}, "MCF7": {"system": "MCF7"}, "MDA-MB-231": {"system": "MDA-MB-231"}, "MDA-MB-435": {"system": "MDA-MB-435"}, "MDA-N": {"system": "MDA-N"}, "MOLT-4": {"system": "MOLT-4"}, "NCI-H226": {"system": "NCI-H226"}, "NCI-H23": {"system": "NCI-H23"}, "NCI-H460": {"system": "NCI-H460"}, "NCI-H522": {"system": "NCI-H522"}, "NCI/ADR-RES": {"system": "NCI/ADR-RES"}, "OVCAR-3": {"system": "OVCAR-3"}, "OVCAR-4": {"system": "OVCAR-4"}, "OVCAR-5": {"system": "OVCAR-5"}, "OVCAR-8": {"system": "OVCAR-8"}, "PC-3": {"system": "PC-3"}, "RPMI-8226": {"system": "RPMI-8226"}, "RXF 393": {"system": "RXF 393"}, "SF-268": {"system": "SF-268"}, "SF-295": {"system": "SF-295"}, "SF-539": {"system": "SF-539"}, "SK-MEL-28": {"system": "SK-MEL-28"}, "SK-MEL-2": {"system": "SK-MEL-2"}, "SK-MEL-5": {"system": "SK-MEL-5"}, "SN12C": {"system": "SN12C"}, "SNB-19": {"system": "SNB-19"}, "SNB-75": {"system": "SNB-75"}, "SR": {"system": "SR"}, "SW-620": {"system": "SW-620"}, "T47D": {"system": "T47D"}, "TK-10": {"system": "TK-10"}, "U-251": {"system": "U-251"}, "UACC-257": {"system": "UACC-257"}, "UACC-62": {"system": "UACC-62"}, "UO-31": {"system": "UO-31"}}, "note": "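Values below derive from 48-hour exposures of cells grown in 96-well plates, with endpoints linearly interpolated between the two concentrations bracketing the appropriate inhibition level. GI50 is the concentration that inhibits growth by half.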 The source made the active and inactive calls. Cut-off read from the data, not from the text of the source: active = GI50 up to about 1.1 µM and inactive = higher.", "data": [{"molecule": "Sc1nnc(-c2ccccc2Nc2ccccc2-c2nnc(S)n2-c2ccccc2)n1-c1ccccc1", "values": [{"measurement": "GI50", "setting": "786-0", "result": "45 µM (inactive)"}, {"measurement": "GI50", "setting": "ACHN", "result": "38.3 µM (inactive)"}, {"measurement": "GI50", "setting": "BT-549", "result": "28.1 µM (inactive)"}, {"measurement": "GI50", "setting": "CAKI-1", "result": "31.3 µM (inactive)"}, {"measurement": "GI50", "setting": "CCRF-CEM", "result": "32.5 µM (inactive)"}, {"measurement": "GI50", "setting": "COLO 205", "result": "34.8 µM (inactive)"}, {"measurement": "GI50", "setting": "DU-145", "result": "56.6 µM (inactive)"}, {"measurement": "GI50", "setting": "EKVX", "result": "32.4 µM (inactive)"}, {"measurement": "GI50", "setting": "HCC 2998", "result": "36.6 µM (inactive)"}, {"measurement": "GI50", "setting": "HCT-116", "result": "63.1 µM (inactive)"}, {"measurement": "GI50", "setting": "HCT-15", "result": 34.3, "unit": "µM"}, {"measurement": "GI50", "setting": "HL-60", "result": "22.8 µM (inactive)"}, {"measurement": "GI50", "setting": "HOP-62", "result": "58.5 µM (inactive)"}, {"measurement": "GI50", "setting": "HOP-92", "result": "17.8 µM (inactive)"}, {"measurement": "GI50", "setting": "HT-29", "result": "35.5 µM (inactive)"}, {"measurement": "GI50", "setting": "IGROV-1", "result": "16.4 µM (inactive)"}, {"measurement": "GI50", "setting": "K562", "result": "52.7 µM (inactive)"}, {"measurement": "GI50", "setting": "KM12", "result": "51.6 µM (inactive)"}, {"measurement": "GI50", "setting": "LOX IMVI", "result": "42.5 µM (inactive)"}, {"measurement": "GI50", "setting": "M14", "result": "40.8 µM (inactive)"}, {"measurement": "GI50", "setting": "MCF7", "result": "37.2 µM (inactive)"}, {"measurement": "GI50", "setting": "MDA-MB-231", "result": "22.7 µM (inactive)"}, {"measurement": "GI50", "setting": "MDA-MB-435", "result": "22.9 µM (inactive)"}, {"measurement": "GI50", "setting": "MDA-N", "result": "32.1 µM (inactive)"}, {"measurement": "GI50", "setting": "MOLT-4", "result": "27.2 µM (inactive)"}, {"measurement": "GI50", "setting": "NCI-H226", "result": "29.7 µM (inactive)"}, {"measurement": "GI50", "setting": "NCI-H23", "result": "34.4 µM (inactive)"}, {"measurement": "GI50", "setting": "NCI-H460", "result": "37.1 µM (inactive)"}, {"measurement": "GI50", "setting": "NCI-H522", "result": "26.7 µM (inactive)"}, {"measurement": "GI50", "setting": "NCI/ADR-RES", "result": "84.1 µM (inactive)"}, {"measurement": "GI50", "setting": "OVCAR-3", "result": "56.6 µM (inactive)"}, {"measurement": "GI50", "setting": "OVCAR-4", "result": "40.4 µM (inactive)"}, {"measurement": "GI50", "setting": "OVCAR-5", "result": "47.9 µM (inactive)"}, {"measurement": "GI50", "setting": "OVCAR-8", "result": "72.6 µM (inactive)"}, {"measurement": "GI50", "setting": "PC-3", "result": "60.3 µM (inactive)"}, {"measurement": "GI50", "setting": "RPMI-8226", "result": "20 µM (inactive)"}, {"measurement": "GI50", "setting": "RXF 393", "result": "35.6 µM (inactive)"}, {"measurement": "GI50", "setting": "SF-268", "result": "69.7 µM (inactive)"}, {"measurement": "GI50", "setting": "SF-295", "result": "43.1 µM (inactive)"}, {"measurement": "GI50", "setting": "SF-539", "result": "28.8 µM (inactive)"}, {"measurement": "GI50", "setting": "SK-MEL-28", "result": "19.5 µM (inactive)"}, {"measurement": "GI50", "setting": "SK-MEL-2", "result": "27 µM (inactive)"}, {"measurement": "GI50", "setting": "SK-MEL-5", "result": "23.7 µM (inactive)"}, {"measurement": "GI50", "setting": "SN12C", "result": "26.5 µM (inactive)"}, {"measurement": "GI50", "setting": "SNB-19", "result": "46.9 µM (inactive)"}, {"measurement": "GI50", "setting": "SNB-75", "result": "37.5 µM (inactive)"}, {"measurement": "GI50", "setting": "SR", "result": "37 µM (inactive)"}, {"measurement": "GI50", "setting": "SW-620", "result": "26.9 µM (inactive)"}, {"measurement": "GI50", "setting": "T47D", "result": "23.9 µM (inactive)"}, {"measurement": "GI50", "setting": "TK-10", "result": "52.8 µM (inactive)"}, {"measurement": "GI50", "setting": "U-251", "result": "30.1 µM (inactive)"}, {"measurement": "GI50", "setting": "UACC-257", "result": "44.3 µM (inactive)"}, {"measurement": "GI50", "setting": "UACC-62", "result": "58.3 µM (inactive)"}, {"measurement": "GI50", "setting": "UO-31", "result": "44.6 µM (inactive)"}]}]}
